From US20170121683A1, “ARYL HYDROCARBON RECEPTOR DISRUPTION AND ENHANCEMENT” (priority 2015, published 2017)

Tests used:
[1] = tested on: hESC-derived non-adherent hematopoietic progenitor cells; test: Cell cycle analysis (EdU/propidium iodide flow cytometry); assay type: cell-based, human; conditions: Day 6+5, SR-1 or TCDD, n=3
Procedure: FIG. 10A. Non-adherent hematopoietic progenitor cells derived from hESCs were cultured in the presence of DMSO, SR-1, and TCDD until Day 6+5. Cell cycle phase was assessed using flow cytometry to determine the total percentage of G0/G1)(EdU^−PI^lo, S-phase (EdU^+PI^+), or G2/M (EdU^−PI^hi). Representative flow cytometry plots are shown. FIG. 10B. Quantification of cell cycle analysis, n=3, *p<0.05, **p<0.01, ***p<0.001 as assessed by two-way ANOVA+Tukey-Kramer multiple comparisons post-hoc test.
Spin EBs were differentiated into hemato-endothelial cells with non-adherent cells harvested on Day 6+5. Cells were cultured in a 24-well plate and harvested after 1 week for flow cytometry analysis. Cells were co-stained with anti-human CD34-PECy7 to monitor proliferation of HSPCs. For cell cycle analysis, Day 6+5 non-adherent cells derived from EBs were harvest and monitored for S-phase using the Click-iT EdU Alex Fluor 647 flow cytometry assay kit per manufacturer instructions. Prior to flow cytometry, cells were counterstained with 50 μg/mL propidium iodide supplemented with 100 μg/mL RNAse A (New England BioLabs, Ipswich, Mass.).

[2] = tested on: non-adherent hematopoietic fractions of differentiating hESC-derived cells; test: qRT-PCR of hematopoietic transcriptional regulators; assay type: cell-based, human
Description: FIG. 9A. Non-adherent hematopoietic progenitor cells derived from hESCs differentiated in the presence of SR-1, TCDD, or DMSO controls were harvested at Day 6+5 and seeded at 50,000 cells/dish in a standard methylcellulose colony-forming unit assay (CFU). Colonies were counted for each treatment group following 2 weeks of culture and scored for the following morphological subsets: BFU-E: burst-forming unit-erythroid; CFU-E: colony-forming unit-erythroid; CFU-GM: colony-forming unit-granulocyte, macrophage, CFU-M: colony-forming unit-macrophage; CFU-GEMM: colony-forming unit-granulocyte, erythroid, macrophage, megakaryocyte. n=3, error bars represent SEM of the total number of colonies/50,000 cells seeded, *p<0.05 as assessed with one-way ANOVA+Tukey-Kramer multiple comparisons post-hoc test. FIG. 9B. Non-adherent hematopoietic progenitor cells derived from hESCs differentiated in the presence of SR-1, TCDD, or DMSO controls were harvested at Day 6+3, Day 6+6, and Day 6+9 time points and probed for gene expression by quantitative real-time PCR (qRT-PCR). For each gene, Ct values were normalized to GAPDH at each time point and data is presented as relative fold-change to DMSO treated controls. n=3, error bars represent SEM, *p<0.05, **p<0.01 using student's t-test.
Non-adherent cell fractions were harvested as previously described in the main text. Total RNA was harvested using the Qiashredder tissue homogenizer kit (Qiagen, Valencia, Calif.) with RNAeasy Mini Kit. RNA concentration and purity was assessed using a NanoDrop 2000 (ThermoFisher Scientific) spectrophotometer and subsequently revere transcribed with a SensiFAST cDNA Synthesis Kit (Bioline, Taunton, Mass.). qPCR was performed using the All-in-One qPCR Mix (GeneCopoeia, Rockville, Md.) and cDNA was used at 50 ng/uL per reaction for qRT-PCR using gene specific human primer pairs (Table 1). qPCR reactions were run on an StepOnePlus Real-Time PCR System thermocycler (ThermoFisher Scientific) in either technical duplicate or triplicate. Ct values were normalized to a GAPDH housekeeper for each sample. Data were then normalized relative to controls using the 2̂-(ΔΔCt) method.

CC(C)n1cnc2c(NCCc3ccc(O)cc3)nc(-c3csc4ccccc34)nc21 [SR-1, StemReginin-1]
percentage of cells in G0/G1 phase (EdU−PIlow) [1]: 43.7%±1.82 | percentage of cells in S-phase (EdU+PI+) [1]: 38.2%±1.00 | expression of GATA1, fold relative to DMSO controls ([2]; Day 6+3): 2.58±0.40 fold | expression of GATA2, fold relative to DMSO controls ([2]; Day 6+3): 6.85±0.74 fold | mean GATA2:GATA1 ([2]; Day 6+3, SR-1 treatment): 2.67 | expression of CMYB ([2]; all time points): significant increase

Clc1cc2c(cc1Cl)Oc1cc(Cl)c(Cl)cc1O2 [TCDD, 2,3,7,8-tetrachlorodibenzo-p-dioxin]
percentage of cells in G0/G1 phase (EdU−PIlow) [1]: 25.8±0.34% | percentage of cells in S-phase (EdU+PI+) [1]: 38.2%±1.03 | expression of GATA1, fold relative to DMSO controls ([2]; Day 6+3): 0.31±0.08 fold | expression of GATA2, fold relative to DMSO controls ([2]; Day 6+6): 0.37±0.13 fold | expression of PU.1 ([2]; each time point (Day 6+3, 6+6, 6+9)): reciprocal expression
